Tests used:
AM receptor = target: T1, AM receptor (Homo sapiens, UniProt Q16602); assay: Intracellular cAMP concentration-increasing effect in AM receptor-expressing HEK293 cells (cAMP ELISA); type: cell-based
T1 construct: expressed in transfected cells; host or cells: HEK293 cell line
Procedure: Then, the intracellular cAMP concentration in the HEK293 cells of each test sample was measured using an ELISA kit for cAMP measurement (GE Healthcare Japan Corp., #RPN2251).

in vivo = details: male, Wistar, rat, iv
Text: Each 11 to 14-week-old male Wistar rat was anesthetized by the inhalation of isoflurane. After tracheotomy, inhalational anesthesia was controlled at an isoflurane concentration of 1.5 to 2.5% and a flow rate of 0.6 to 0.8 L/min. The right jugular vein was isolated from the rat, and a catheter tube corresponding to 26 G was inserted thereto. Next, the left carotid artery was isolated from the rat thus treated, and a catheter tube corresponding to 23 G was inserted thereto. […] From the catheter inserted in the carotid artery, 300 μl of blood was collected over time from the start of the administration. Immediately, EDTA-2Na (300 μg) and aprotinin (21 μg) were added to the obtained blood sample, and the mixture was further centrifuged under conditions involving 3000 rpm and 10 minutes to obtain plasma. The AM concentration in the plasma of each sample was measured by chemiluminescent enzyme immunoassay. The half-lives in blood of the first and second phases were calculated from the measurement results of the AM concentration in the plasma using a two-compartment model.

[1] = test system: blood pressure of the rat; assay: Blood pressure-lowering effect after single intravenous dose in anesthetized rats; type: in vivo; details: intravenous single dose 10 nmol/kg
Procedure: From the catheter tube of the right jugular vein, a physiological saline-heparin solution (physiological saline: 100 ml; heparin: 1000 units) was infused at 2.4 ml/hr. […] The catheter inserted in the carotid artery was connected to a pressure transducer. […] In the figure, the longitudinal axis indicates a difference obtained by subtracting the average blood pressure before the administration of each drug from the average blood pressure at the time of the administration of each drug.
In the case of these derivatives, the blood pressure-lowering effect was sustained even 90 minutes after the administration. […] The blood pressure-lowering effect of the adrenomedullin derivative shown in this test was well consistent with the prolonged half-life in blood shown in the above test.

[2] = test system: DSS-induced enteritis (inflammatory bowel disease model); assay: Therapeutic effect on DSS-induced inflammatory bowel disease model (total score, length of intestinal tract); type: in vivo, mouse; parameters: total score, median value / total score, mean±standard deviation: scale not given here; details: for total score as compared with the control group: Steel's multiple comparison test, p<0.05 or P<0.01
Procedure: The body weight of the subject mouse was measured 3, 5, 7, 10 and 14 days after the start of the administration.
The body weight of the subject mouse and the form of stool thereof were evaluated 3, 5, 7, 10 and 14 days after the start of the administration on the basis of scoring criteria given below. The obtained scores were summed to calculate the total score of each sample.
The intestinal tract excised by anatomy was opened along its longitudinal axis, and fat tissues were removed, followed by washing with physiological saline. Next, the length of the intestinal tract was measured.
The total score evaluated by the procedures described above is indicated by a median value [mean±standard deviation]. The total scores of the control group obtained 3, 5, 7, 10 and 14 days after the start of the administration were 0.0 [0.6±0.3], 4.0 [3.7±0.4], 6.0 [5.4±0.5], 3.5 [4.1±0.4] and 0.0 [0.0±0.0], respectively.

[3] = second-phase half-life in blood
[4] = 0.02 nmol/kg/hr, 3 days after the start of the administration
[5] = 0.1 nmol/kg/hr, 3 days after the start of the administration
[6] = 0.5 nmol/kg/hr, 3 days after the start of the administration

T1 sequence (Q16602 23-461): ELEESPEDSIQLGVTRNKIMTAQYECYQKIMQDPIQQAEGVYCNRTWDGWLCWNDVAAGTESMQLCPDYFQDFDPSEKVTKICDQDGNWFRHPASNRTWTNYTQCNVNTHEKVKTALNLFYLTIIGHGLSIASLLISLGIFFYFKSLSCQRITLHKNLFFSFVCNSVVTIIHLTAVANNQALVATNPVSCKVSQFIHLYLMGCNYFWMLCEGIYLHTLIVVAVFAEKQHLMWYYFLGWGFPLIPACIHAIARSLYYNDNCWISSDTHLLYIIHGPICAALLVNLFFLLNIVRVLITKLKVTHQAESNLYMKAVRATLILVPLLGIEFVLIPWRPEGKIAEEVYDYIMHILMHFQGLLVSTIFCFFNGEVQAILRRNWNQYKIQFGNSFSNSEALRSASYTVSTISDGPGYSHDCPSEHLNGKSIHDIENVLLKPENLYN
T1 sequence (O60895 43-175 partner): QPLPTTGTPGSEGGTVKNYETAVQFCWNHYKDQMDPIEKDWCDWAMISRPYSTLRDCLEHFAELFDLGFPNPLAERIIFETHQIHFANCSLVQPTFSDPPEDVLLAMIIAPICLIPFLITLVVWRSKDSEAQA

Compound: CCCCCCCCCCCCCCCC(=O)N[C@@H](Cc1ccc(O)cc1)C(=O)N[C@@H](CCCNC(=N)N)C(=O)N[C@@H](CCC(N)=O)C(=O)N[C@@H](CO)C(=O)N[C@@H](CCSC)C(=O)N[C@@H](CC(N)=O)C(=O)N[C@@H](CC(N)=O)C(=O)N[C@@H](Cc1ccccc1)C(=O)N[C@@H](CCC(N)=O)C(=O)NCC(=O)N[C@@H](CC(C)C)C(=O)N[C@@H](CCCNC(=N)N)C(=O)N[C@@H](CO)C(=O)N[C@@H](Cc1ccccc1)C(=O)NCC(=O)N[C@H]1CSSC[C@@H](C(=O)N[C@H](C(=O)N[C@H](C(=O)N[C@@H](CCC(N)=O)C(=O)N[C@@H](CCCCN)C(=O)N[C@@H](CC(C)C)C(=O)N[C@@H](C)C(=O)N[C@@H](Cc2c[nH]cn2)C(=O)N[C@@H](CCC(N)=O)C(=O)N[C@H](C(=O)N[C@@H](Cc2ccc(O)cc2)C(=O)N[C@@H](CCC(N)=O)C(=O)N[C@@H](Cc2ccccc2)C(=O)N[C@H](C(=O)N[C@@H](CC(=O)O)C(=O)N[C@@H](CCCCN)C(=O)N[C@@H](CC(=O)O)C(=O)N[C@@H](CCCCN)C(=O)N[C@@H](CC(=O)O)C(=O)N[C@@H](CC(N)=O)C(=O)N[C@H](C(=O)N[C@@H](C)C(=O)N2CCC[C@H]2C(=O)N[C@@H](CCCNC(=N)N)C(=O)N[C@@H](CO)C(=O)N[C@@H](CCCCN)C(=O)N[C@H](C(=O)N[C@@H](CO)C(=O)N2CCC[C@H]2C(=O)N[C@@H](CCC(N)=O)C(=O)NCC(=O)N[C@@H](Cc2ccc(O)cc2)C(N)=O)[C@@H](C)CC)C(C)C)[C@@H](C)O)[C@@H](C)CC)C(C)C)[C@@H](C)O)NC(=O)[C@H]([C@@H](C)O)NC(=O)CNC(=O)[C@H](Cc2ccccc2)NC(=O)[C@H](CCCNC(=N)N)NC1=O [Pal-h.AM(1-52)]
- EC50 (AM receptor): 3.24 nM
- maximum response value of increase in cAMP concentration as compared with h.AM(1-52) (AM receptor; AM receptor-expressing HEK293 cells): substantially equivalent
- half-life (in vivo; first-phase half-life in blood): 3.51 min
- half-life (in vivo; [3]): 123 min
- effect on blood pressure [1]: lowered the blood pressure
- maximum pressure drop value compared with h.AM(1-52) [1]: lower than the value of h.AM(1-52)

Compound: CC[C@H](C)[C@H](NC(=O)[C@H](CCC(N)=O)NC(=O)[C@H](Cc1c[nH]cn1)NC(=O)[C@H](C)NC(=O)[C@H](CC(C)C)NC(=O)[C@H](CCCCN)NC(=O)[C@H](CCC(N)=O)NC(=O)[C@@H](NC(=O)[C@@H](NC(=O)[C@@H]1CSSC[C@H](NC(=O)CNC(=O)[C@H](Cc2ccccc2)NC(=O)[C@H](CO)NC(=O)[C@H](CCCNC(=N)N)NC(=O)[C@H](CC(C)C)NC(=O)CNC(=O)[C@H](CCC(N)=O)NC(=O)[C@H](Cc2ccccc2)NC(=O)[C@H](CC(N)=O)NC(=O)[C@H](CC(N)=O)NC(=O)[C@H](CCSC)NC(=O)[C@H](CO)NC(=O)[C@H](CCC(N)=O)NC(=O)[C@H](CCCNC(=N)N)NC(=O)[C@@H](N)Cc2ccc(O)cc2)C(=O)N[C@@H](CCCNC(=N)N)C(=O)N[C@@H](Cc2ccccc2)C(=O)NCC(=O)N[C@@H]([C@@H](C)O)C(=O)N1)[C@@H](C)O)C(C)C)C(=O)N[C@@H](Cc1ccc(O)cc1)C(=O)N[C@@H](CCC(N)=O)C(=O)N[C@@H](Cc1ccccc1)C(=O)N[C@H](C(=O)N[C@@H](CC(=O)O)C(=O)N[C@@H](CCCCN)C(=O)N[C@@H](CC(=O)O)C(=O)N[C@@H](CCCCN)C(=O)N[C@@H](CC(=O)O)C(=O)N[C@@H](CC(N)=O)C(=O)N[C@H](C(=O)N[C@@H](C)C(=O)N1CCC[C@H]1C(=O)N[C@@H](CCCNC(=N)N)C(=O)N[C@@H](CO)C(=O)N[C@@H](CCCCN)C(=O)N[C@H](C(=O)N[C@@H](CO)C(=O)N1CCC[C@H]1C(=O)N[C@@H](CCC(N)=O)C(=O)NCC(=O)N[C@@H](Cc1ccc(O)cc1)C(N)=O)[C@@H](C)CC)C(C)C)[C@@H](C)O [h.AM(1-52), reference compound]
- half-life (in vivo; first-phase half-life in blood): 0.61 min
- half-life (in vivo; [3]): 18.9 min
- effect on blood pressure [1]: lowered the blood pressure
- time after the administration at which the blood pressure before the administration was restored [1]: 30 min
- time of maximum pressure drop after the administration [1]: 2 min

Compound: PEG5000-h.AM(1-52): human adrenomedullin (1-52) N-terminally linked to PEG having an average molecular weight of 5000 via 1-oxo-1,6-hexanediyl
- total score, mean±standard deviation [2, 4]: 0.8±0.2
- total score, median value [2, 4]: 1.0
- total score, mean±standard deviation ([2]; 0.02 nmol/kg/hr, 5 days): 2.8±0.5
- total score, median value ([2]; 0.02 nmol/kg/hr, 5 days): 2.5
- total score, mean±standard deviation ([2]; 0.02 nmol/kg/hr, 7 days): 5.7±0.4
- total score, median value ([2]; 0.02 nmol/kg/hr, 7 days): 5.5
- total score, mean±standard deviation ([2]; 0.02 nmol/kg/hr, 10 days): 3.1±0.8
- total score, median value ([2]; 0.02 nmol/kg/hr, 10 days): 2.5
- length of the intestinal tract (mean±standard deviation) ([2]; 0.02 nmol/kg/hr, 14 days): 69.4±1.5 mm
- total score, mean±standard deviation ([2]; 0.02 nmol/kg/hr, 14 days): 0.0±0.0
- total score, median value ([2]; 0.02 nmol/kg/hr, 14 days): 0.0
- total score, mean±standard deviation [2, 5]: 0.7±0.3
- total score, median value [2, 5]: 0.0
- total score, mean±standard deviation ([2]; 0.1 nmol/kg/hr, 5 days): 1.9±0.5
- total score, median value ([2]; 0.1 nmol/kg/hr, 5 days): 1.5
- total score, mean±standard deviation ([2]; 0.1 nmol/kg/hr, 7 days): 4.1±0.4
- total score, median value ([2]; 0.1 nmol/kg/hr, 7 days): 5.0
- total score, mean±standard deviation ([2]; 0.1 nmol/kg/hr, 10 days): 2.0±0.5
- total score, median value ([2]; 0.1 nmol/kg/hr, 10 days): 2.0
- total score as compared with the control group ([2]; 0.1 nmol/kg/hr, 10 days): significant decrease
- length of the intestinal tract (mean±standard deviation) ([2]; 0.1 nmol/kg/hr, 14 days): 71.4±0.9 mm
- total score, mean±standard deviation ([2]; 0.1 nmol/kg/hr, 14 days): 0.0±0.0
- total score, median value ([2]; 0.1 nmol/kg/hr, 14 days): 0.0
- total score as compared with the control group ([2]; 0.5 nmol/kg/hr, 5, 7 and 10 days): significant decrease
- total score, mean±standard deviation [2, 6]: 1.3±0.3
- total score, median value [2, 6]: 1.0
- total score, mean±standard deviation ([2]; 0.5 nmol/kg/hr, 5 days): 1.1±0.3
- total score, median value ([2]; 0.5 nmol/kg/hr, 5 days): 1.5
- total score, mean±standard deviation ([2]; 0.5 nmol/kg/hr, 7 days): 3.0±0.3
- total score, median value ([2]; 0.5 nmol/kg/hr, 7 days): 3.0
- total score, mean±standard deviation ([2]; 0.5 nmol/kg/hr, 10 days): 2.1±0.4
- total score, median value ([2]; 0.5 nmol/kg/hr, 10 days): 2.0
- length of the intestinal tract (mean±standard deviation) ([2]; 0.5 nmol/kg/hr, 14 days): 72.4±0.9 mm
- total score, mean±standard deviation ([2]; 0.5 nmol/kg/hr, 14 days): 0.0±0.0
- total score, median value ([2]; 0.5 nmol/kg/hr, 14 days): 0.0
- length of the intestinal tract as compared with the control group ([2]; all of 0.02, 0.1 and 0.5 nmol/kg/hr, Dunnett's multiple comparison test, P<0.05 or P<0.01): significantly different
- effect on blood pressure [1]: lowered the blood pressure
- maximum pressure drop value compared with h.AM(1-52) [1]: lower than the value of h.AM(1-52)

Reference: patent US11414474B2, “Long-acting adrenomedullin derivatives” (University of Miyazaki, priority 2014, dated 2022)
